We go through one compound from patent US11096952B2, “Chemicals and methods to prevent and treat TGF-beta mediated activation of fibroblasts to reduce and treat cancer and fibrosis” (Board of Supervisors of Louisiana State University and …, priority 2016, dated 2021).

Structures are written as SMILES.

Assay [1] has as its system TGF-β-induced fibronectin expression. Briefly: Western blot of TGF-β-induced fibronectin expression in HPS-19 fibroblasts. The assay is classed as cell-based, human. Particulars: HPS-19, 5 ng/ml TGF-β, digoxin 30, 60, 120, 240 nM, 24 hours. An excerpt: (§1) Representative blots are shown with two exposures of fibronectin to account for strong signal intensity. n=3.
The test system is the same in assay [2]. Briefly: Western blot of TGF-β-induced fibronectin expression in MRC-5 fibroblasts (5 ng/ml TGF-β). Format: cell-based, human. To be noted: MRC-5, 5 ng/ml TGF-β, digoxin 30, 60, 120, 240 nM, 24 hours.
Excerpt: as §1
On the technique in general: A western blot detects proteins with antibodies after separation by electrophoresis.

In assay [3] the test system is TGF-β-induced CAF differentiation markers. Briefly: Real-Time PCR of CAF markers in WPMY-1 fibroblasts. The assay is classed as cell-based, human. To be noted: WPMY-1, 120 nM digoxin, 24 h. How it is done:
(§2) In order to determine if digoxin prevents CAF differentiation or simply TGF-β-induced fibronectin expression, the inventors performed quantitative reverse transcriptase-PCR (qPCR) to analyze other CAF markers, including α-SMA, collagen 1a1 (COL1A1), fibroblast activation protein (FAP), and tenascin C (TNC). RNA was extracted from cells treated with 120 nM digoxin±TGF-β for 24 hours. […] Additionally, the inventors observed that α-SMA mRNA expression was already high in WPMY-1 cells and not increased by addition of TGF-β, but was reduced in response to digoxin treatment.

The test system is the same in assay [4]. Briefly: Real-Time PCR of CAF markers in MRC-5 fibroblasts. Format: cell-based, human. Particulars: MRC-5, 120 nM digoxin, 5 ng/ml TGF-β, 24 h. How it is done:
as §2
Background: Real-time PCR tracks product formation cycle by cycle.

A further assay relates to SMAD promoter activity. The experiment in a line: SMAD luciferase reporter in WPMY-1 cells. Particulars: WPMY-1, digoxin 60 or 120 nM, 5 ng/ml TGF-β, 24 hours. Format: cell-based, human. How it is done: (§3) A) WPMY-1 human fibroblast cells transfected with SMAD (left) or EGR1 (right) luciferase reporter were treated with or without 5 ng/ml TGF-β in the presence or absence of Digoxin (60 or 120 nM) for 24 hours. Relative luciferase activity is shown. *P<0.05, **P<0.01, ***P<0.001 are significant differences compared to values set to 1 (n=3, Values are ±SEM). B) J2 mouse fibroblast cells were treated with or without 5 ng/ml TGF-β in the presence or absence of increasing concentrations (30, 60, 120, or 240 nM) of digoxin for 24 hours. Representative blot is shown with two exposures of fibronectin to account for strong signal intensity (n=3).
(§4) Finally, J2 mouse fibroblast cells were treated with or without 5 ng/ml TGF-β in the presence or absence of increasing concentrations (30, 60, 120, or 240 nM) of digoxin for 24 hours.
A general note: Reporter assays use an easily measured gene product as a stand-in for the process of interest.

For assay [5], the system named is TGF-β-induced fibronectin expression. Briefly: Western blot of TGF-β-induced fibronectin in J2 mouse fibroblast cells. Format: cell-based. To be noted: J2 (3T3-J2) mouse fibroblasts, digoxin 30-240 nM, 5 ng/ml TGF-β, 24 hours. How it is done: as §3, §4
The inventors used 3T3-J2 murine fibroblasts, which are highly resistant to cardiac glycosides compared to theft human counterpart.

Assay [6] has as its system activated fibroblast phenotype (fibronectin, YAP, TAZ, smooth muscle actin). Briefly: Western blot of activated fibroblast markers (FN, YAP, TAZ, SMA) in MRC-5 lung fibroblasts induced by growth factors. Format: cell-based, human. How it is done: FIG. 10C: MRC-5 lung fibroblast cells were serum-starved 24 hours then treated with 10 ng/mL TGF-β in serum-free media for 24 hours with or without verteporfin at the indicated concentration. FN: fibronectin, YAP: yes-activated protein, TAZ: transcriptional coactivator with PDZ-binding motif, and SMA(ACTA2): smooth muscle actin. Representative western blot is shown (n=3).
FIG. […] T.F.8: combination TGF, FGF, IL8. […] FN: fibronectin, YAP: yes-activated protein, TAZ: transcriptional coactivator with PDZ-binding motif, and SMA(ACTA2): smooth muscle actin. Representative western blot is shown (n=2).

In assay [7] the test system is transcriptional upregulation of activated fibroblasts markers by TGF-β or IL-8. Particulars: MRC-5, 10 ng/mL TGF-β or 20 ng/ml IL-8, 24 hours; digoxin 150 nM, pyrvinium 300 nM. How it is done: Expression of the indicated genes was analyzed by real-time qPCR. TGFβ treated samples were set at 1 and other conditions were normalized accordingly. FN1: fibronectin, YAPv4: yes-activated protein, TNC: tenascin C, Col1A1: collagen 1a1, WWTR1v2: WW domain-containing transcription regulator protein 1 (TAZ), and SNAI1: Snail1. Representative data from at least two independent experiments are provided.

Assay [8] deals with TGF-β-induced fibronectin. To be noted: MRC-5, 10 ng/mL TGF-β, 24 hours, low concentrations alone or in combination. How it is done: (§5) FIGS. 13A-13C: MRC-5 lung fibroblast cells were serum-starved 24 hours then treated with or without 10 ng/mL TGF-β for 24 hours (T-24 hr). […] FN: fibronectin, YAP: yes-activated protein, TAZ: transcriptional coactivator with PDZ-binding motif, and SMA(ACTA2): smooth muscle actin. Representative western blot is shown (n=2). […] Cells were fixed in −20C methanol for 15 minutes and immunolabeled for fibronectin. Cellomics arrayscan imaging was performed and staining intensity was quantified and analyzed for fibronectin expression on a per cell basis.
(§6) Turning now to FIGS. 13A-13E, in a clinical setting, it would be advantageous for the efficacy of the therapeutics that the activated fibroblasts be reversed to a quiescent state upon treatment. […] To test the combinations, the inventors obtained quantitative analysis of fibronectin staining in fibroblasts upon treatment with TGF-β in the presence or absence of drug combinations.

Assay [9] deals with activated fibroblast phenotype. To be noted: MRC-5 pre-activated with 10 ng/mL TGF-β 24 hours, then 24 hours treatment. How it is done:
as §5, §6

Another assay has as its system MRC-5 fibroblasts. The experiment in a line: Collagen/Matrigel contraction of MRC-5 fibroblasts. To be noted: MRC-5 in collagen/Matrigel, 120 nM digoxin, 5 ng/ml TGF-β, 4 days.
For a further assay, the system named is WPMY-1 fibroblasts. Briefly: Collagen/Matrigel contraction of WPMY-1 fibroblasts. To be noted: WPMY-1 in collagen/Matrigel, 120 nM digoxin, 5 ng/ml TGF-β, 4 days.

In the case of `C[C@H]1O[C@@H](O[C@H]2[C@@H](O)C[C@H](O[C@H]3[C@@H](O)C[C@H](O[C@H]4CC[C@@]5(C)[C@H](CC[C@@H]6[C@@H]5C[C@@H](O)[C@]5(C)[C@@H](C7=CC(=O)OC7)CC[C@]65O)C4)O[C@@H]3C)O[C@@H]2C)C[C@H](O)[C@@H]1O` [digoxin], the “TGF-β-induced fibronectin expression (western blot)” value in assay [1] and in assay [2] was “prevents TGF-β-induced fibronectin expression in a dose dependent manner” throughout. Moreover, in [3] (5 ng/ml TGF-β), the “TGF-β-induced expression of FN1, COL1A1, FAP, TNC mRNA” value is “prevented TGF-β-induced expression of FN1, COL1A1, FAP, and TNC mRNA”. In addition, the “α-SMA mRNA expression” value in assay [3] is given as “reduced”. The “TGF-β-induced expression of FN1, α-SMA, COL1A1, TNC mRNA” value in [4] is “prevented TGF-β-induced expression”. Moreover, the “TGF-β-induced SMAD promoter (luciferase) activity” value in the assay on SMAD promoter activity was “prevents the TGF-β induction of the SMAD signaling pathway”. The “TGF-β-induced fibronectin expression in mouse fibroblasts” value in assay [5] was “did not have an effect on TGF-β-induced fibronectin expression”; in assay [5] (listed as Digoxin) it was “did not prevent fibronectin induction even at high concentrations”. For the same compound, in assay [6] (MRC-5, 10 ng/mL TGF-β and 20 ng/ml FGF, 24 hours), the “activated fibroblast phenotype induced by TGF-β and FGF (fibronectin, YAP, TAZ, smooth muscle actin)” value is “able to prevent the activated fibroblast phenotype”. In addition, the “activated fibroblast phenotype upon TGF-β and FGF, compared with nintedanib” value in assay [6] (MRC-5, 10 ng/mL TGF-β and 20 ng/ml FGF, 24 hours, nintedanib 200 nM) is given as “able to block the activated fibroblast phenotype better than nintedanib”. In addition, in [6] (MRC-5, 10 ng/mL TGF-β, 20 ng/mL FGF, 20 ng/mL IL-8, digoxin 250 nM, pyrvinium 500 nM vs pirfenidone 500 μm, nintedanib 250 nM), the “fibroblast activation from a combination of growth factors (TGF, FGF, IL8)” value was “able to block fibroblast activation from a combination of growth factors better than pirfenidone or nintedanib”. In [6] (MRC-5, 10 ng/mL TGF-β, serum-free, 24 hours, dose escalation), the “induction of fibronectin, YAP, TAZ, smooth muscle actin by TGF-β” value is “block the induction of activated fibroblasts”. Also, the “transcriptional induction of collagen 1a1, tenascin C, fibronectin, YAP, Snail (TGF-β) and TAZ (IL-8)” value in assay [7] is “prevented the transcriptional induction of collagen 1a1, tenascin C, fibronectin, YAP and Snail downstream of TGF-β signaling and TAZ downstream of the fibroblast chemokine IL-8”. Besides, the “fibronectin staining intensity per cell (Cellomics arrayscan)” value in assay [8] is listed as “the levels of fibronectin are reduced”. In addition, the “reversal of activated fibroblast phenotype (fibronectin, TAZ, smooth muscle actin)” value in assay [9] is on record as “revert fibroblasts to the quiescent state”. In addition, the “TGF-β induced contraction of fibroblasts” value with MRC-5 fibroblasts and with WPMY-1 fibroblasts was “inhibits TGF-β induced contraction of fibroblasts” in each case.
